Experimental data published in PMC3979046 (Breast Cancer Research : BCR, 2013).
Like-named read-outs stand apart in the source and are kept apart here.

What was measured:
[1] = test system: HER2+ metastatic breast cancer patients refractory to trastuzumab; parameters: method as in PMID 22689807; details: phase 3 trial, 296 patients, no chemotherapy ref 21; cited from earlier work
[2] = test system: patients with HER2+ solid tumors; details: in combination with trastuzumab, true MTD not established
Description: This phase 1, multicenter, open-label, nonrandomized, dose-defining study was conducted in accordance with the Declaration of Helsinki and the International Conference on Harmonisation Good Clinical Practice Guidelines, and was approved by relevant regulatory and independent ethics committees including Memorial Sloan-Kettering Cancer Center’s Institutional Review Board, Mofftt Cancer Center’s Quorum Review Institutional Review Board, and The National Research Ethics Service, The Royal Marsden Research Ethics Committee. Patients provided written consent prior to enrolling in the trial. […] Dose finding was based on toxicity probability intervals. In brief, three patients were first dosed at each level and advanced according to the toxicity probability interval; up to another 10 patients (total of 13 patients at a dose level) could be assigned to one dose, in which case up to four DLT events in the dose level of 13 patients would be considered tolerable. […] Correlation of antitumor activity with PI3K pathway activation events (that is, circulating tumor DNA and mutations) was an exploratory objective of this trial.
Patients were evaluated at baseline and throughout the course of the study using physical examinations, vital signs, ophthalmologic examinations, 12-lead electrocardiogram cardiac monitoring, laboratory tests, and Eastern Cooperative Oncology Group performance status.

[3] = human, in vivo
[4] = test system: patients with solid tumors; parameters: method as in PMID 22025163; details: cited from earlier work
[5] = prior phase 1 studies ref 13; cited from earlier work
[6] = test system: recombinant human AKT1, AKT2 and AKT3; details: cited from earlier work
cytochrome p450 3A4 = details: cited from earlier work
HER3 = test system: HER3; parameters: method as in PMID 21215704; details: via feedback mechanisms ref 11; cited from earlier work
[7] = Plasma pharmacokinetics of MK-2206 given with trastuzumab; details: for Tmax: human, plasma, oral

Structure (SMILES)	median progression-free survival [1] [weeks]	maximum tolerated dose (MTD) ([2]; QOD schedule) [mg]	maximum tolerated dose (MTD) ([2]; QW schedule) [mg]	patients achieving the 48-hour target of at least 56.8 nM [3]	most significant dose-limiting toxicity (DLT) ([4]; monotherapy ref 13)	maximum tolerable dose (MTD) ([4]; monotherapy, QOD ref 13) [mg]	maximum tolerable dose (MTD), expected ([4]; monotherapy, QW, not established due to early discontinuation ref 13)	dose proportionality [5]	off-target kinase activity [6]	relative potency against AKT isoforms ([6]; recombinant human isoforms ref 12)	metabolizing enzyme (cytochrome p450 3A4)	effect on HER3 (HER3)	patients with trough level at or above the clinical monotherapy efficacy trough target of 56.8 nM ([7]; 45 mg or 60 mg QOD with trastuzumab)	geometric mean ratio of Cmax (last dose/first dose) ([7]; 200 mg QW, multiple dosing for 21 to 22 days)	Tmax [7] [h]	Tmax ([7]; median time to maximum concentration, 135 mg and 200 mg QW with trastuzumab) [h]
CS(=O)(=O)CCNCc1ccc(-c2ccc3ncnc(Nc4ccc(OCc5cccc(F)c5)c(Cl)c4)c3c2)o1 [lapatinib]	8.1	–	–	–	–	–	–	–	–	–	–	–	–	–	–	–
NC1(c2ccc(-c3nc4ccn5c(=O)[nH]nc5c4cc3-c3ccccc3)cc2)CCC1 [MK-2206]	–	60	135	~ 92%	rash	60	less than 250 mg	no substantial departure from dose proportionality	little off-target kinase activities	higher potency against recombinant human AKT1 and AKT2 isoforms than AKT3	metabolized by cytochrome p450 3A4	upregulate HER3	11/11	1.30	4 to 6	4 to 8
